Experimental data reported in patent US8211831B2, “Method to use a synergistic composition” (Riceco, LLC, priority 2005, dated 2012).

Key:
Assay type in all cases: in vivo
[1] = tested on: broadleaf weeds and sedges; test: small plot test in Arkansas, weedy rice plot (Example 1); conditions: Clincher SF alone, 15 fluid ounces/acre (0.279 pounds ai/acre)
From the text: (§1) Note that the label recommended rate for Clincher® (cyhalofop) SF for controlling grasses in the 2-3 leaf stage is 13.5 fluid ounces/acre (0.251 pounds cyhalofop/acre).

[2] = tested on: grasses; test: as above; conditions: Clincher SF alone, 15 fluid ounces/acre (0.279 pounds ai/acre); 2-3 leaf barnyard grass
From the text: as §1

[3] = tested on: barnyard grass and Sprangletop (two grass species); test: small plot test in Arkansas, weedy rice plot (Example 7); conditions: cyhalofop alone, high labeled rate 0.279 pounds/acre; 12 days after application
From the text: (§2) The chemical rates in pounds/acre were:
(§3) The following observations were made 12 days after application.

[4] = tested on: broadleaf weeds and sedges; test: as above; conditions: 12 days after application
From the text: as §2, §3

[5] = tested on: Barnyard grass; test: commercial field application by air in Arkansas, half a weedy rice field (Example 8); conditions: only propanil (Super Wham) at 4 pounds; 7 days after application
[6] = tested on: Sprangletop; test: small plot test in Arkansas, weedy rice plot (Example 7); conditions: propanil applied alone, all rates (5, 4, 3 pounds/acre); 12 days after application; 1 to 6 inch Sprangletop
From the text: as §2, §3

Structure (SMILES) | control of the broadleaf weeds and sedges present at the time of application [1] [%] | control of the grasses [2] | grass control [3] | controlling broadleaf weeds and sedges ([4]; cyhalofop alone, high labeled rate 0.279 pounds/acre) | barnyard grass control [5] | Sprangletop control [6] | broadleaf and sedge control ([4]; all rates of propanil applied (5, 4, 3 pounds/acre))
C[C@@H](Oc1ccc(Oc2ccc(C#N)cc2F)cc1)C(=O)O [cyhalofop] | 0 | controlled the grasses | excellent grass control | weakness in controlling broadleaf weeds and sedges |  |  | 
CCC(=O)Nc1ccc(Cl)c(Cl)c1 [propanil] |  |  |  |  | poor barnyard grass control | lack of Sprangletop control | excellent broadleaf and sedge control
